These are literature values, as cited in PMC12910647, “Tumor-Targeted Delivery of an EGFR Inhibitor Prodrug via Site-Specific Albumin Conjugation” (Journal of Medicinal Chemistry, 2026).

On the set-up of this series: method as in not given. To be noted: in mice, reported value; ref not given.

In the case of `C=CC(=O)Nc1cc(Nc2nccc(-c3cn(C)c4ccccc34)n2)c(OC)cc1N(C)CCN(C)C` [osimertinib], the “maximum tolerated dose (MTD)” value was 25 mg/kg.
